The structures appear in SMILES notation. Converted amounts (≈) assume the structure as drawn.

The test system of one test is Candida albicans. Put plainly: Minimum inhibitory concentration against Candida albicans ATCC 10231. The class given is functional.
A further test deals with Trichophyton benhamiae. Put plainly: Minimum inhibitory concentration against Trichophyton mentagrophytes. The class given is functional, Arthroderma benhamiae.
Another test relates to Aspergillus niger. Put plainly: Minimum inhibitory concentration against Aspergillus niger. The class given is functional.
For another test, the system named is Paraphyton cookei. Put plainly: Minimum inhibitory concentration against Microsporum cookei. Type of test: functional.
Another test relates to Pseudomonas aeruginosa. Put plainly: Minimum inhibitory concentration against Pseudomonas aeruginosae ATCC 27853. The class given is functional.
Another test has as its system Escherichia coli. Put plainly: Minimum inhibitory concentration against Escherichia coli ATCC 25853. The class given is functional.
For a further test, the system named is Arthroderma uncinatum. Put plainly: Minimum inhibitory concentration against Trichophyton ajelloi. The class given is functional.
For another test, the system named is Nannizzia gypsea. Put plainly: Minimum inhibitory concentration Microsporum gypseum. The class given is functional.
A further test relates to Nannizzia nana. Put plainly: Minimum inhibitory concentration against Microsporum nanum. Type of test: functional.
The subject of a further test is Aspergillus flavus. Put plainly: Minimum inhibitory concentration against Aspergillus flavus. The class given is functional.
A further test concerns Staphylococcus aureus. Put plainly: Minimum inhibitory concentration Staphylococcus aureus ATCC 29213. Type of test: functional.
In the next test the test system is Enterococcus faecalis. Put plainly: Minimum inhibitory concentration against Streptococcus faecalis ATCC 29212. Type of test: functional.

As usually defined, the MIC is the lowest concentration found to suppress growth. For the compound `O=C(O)c1ccc(/N=C(\S)Nc2cccc(/N=C(/S)Nc3ccc(C(=O)O)cc3)c2)cc1`, the MIC is > 512 µg/mL with Candida albicans; 64 µg/mL (≈ 137 µM) in the test with Trichophyton benhamiae; ≥ 512 µg/mL against Aspergillus niger; 32 µg/mL (≈ 68.6 µM) against Paraphyton cookei; 512 µg/mL (≈ 1100 µM) in the test on Pseudomonas aeruginosa; > 512 µg/mL in the test on Escherichia coli. The MIC against Arthroderma uncinatum was 64 µg/mL (≈ 137 µM); against Nannizzia gypsea, 64 µg/mL (≈ 137 µM); with Nannizzia nana it was 64 µg/mL (≈ 137 µM); against Aspergillus flavus, ≥ 512 µg/mL; in the test on Staphylococcus aureus, 256 µg/mL (≈ 549 µM); in the test on Enterococcus faecalis it was 512 µg/mL (≈ 1100 µM).

Turning to `CCOC(=O)c1ccc(/N=C(\S)Nc2ccc(/N=C(/S)Nc3ccc(C(=O)OCC)c(O)c3)cc2)cc1O`, the MIC against Candida albicans is > 512 µg/mL; against Trichophyton benhamiae, > 512 µg/mL; in the test on Aspergillus niger, ≥ 512 µg/mL; against Paraphyton cookei, 256 µg/mL (≈ 462 µM); in the test with Pseudomonas aeruginosa, 512 µg/mL (≈ 923 µM); with Escherichia coli, > 512 µg/mL. Also, the minimal inhibitory concentration (MIC) was > 512 µg/mL in the test with Arthroderma uncinatum; 256 µg/mL (≈ 462 µM) in the test with Nannizzia gypsea; 128 µg/mL (≈ 231 µM) with Nannizzia nana; ≥ 512 µg/mL against Aspergillus flavus; > 512 µg/mL in the test with Staphylococcus aureus; 512 µg/mL (≈ 923 µM) with Enterococcus faecalis.

With `CC(C)OC(=O)c1ccc(/N=C(\S)Nc2cccc(/N=C(/S)Nc3ccc(C(=O)OC(C)C)cc3)c2)cc1`, the MIC with Candida albicans was > 512 µg/mL; with Trichophyton benhamiae, 32 µg/mL (≈ 58.1 µM); against Aspergillus niger, ≥ 512 µg/mL; against Paraphyton cookei, 16 µg/mL (≈ 29.1 µM); against Pseudomonas aeruginosa it was > 512 µg/mL; in the test on Escherichia coli it was 512 µg/mL (≈ 930 µM). The MIC was 64 µg/mL (≈ 116 µM) in the test on Arthroderma uncinatum; 64 µg/mL (≈ 116 µM) against Nannizzia gypsea; 8 µg/mL (≈ 14.5 µM) in the test on Nannizzia nana; ≥ 512 µg/mL in the test on Aspergillus flavus; 512 µg/mL (≈ 930 µM) with Staphylococcus aureus; > 512 µg/mL in the test on Enterococcus faecalis.

For the compound `O=C(NNc1ccccc1)c1ccc(/N=C(\S)Nc2ccc(/N=C(/S)Nc3ccc(C(=O)NNc4ccccc4)c(O)c3)cc2)cc1O`, the minimal inhibitory concentration (MIC) against Candida albicans was 512 µg/mL (≈ 754 µM); in the test with Trichophyton benhamiae, 32 µg/mL (≈ 47.1 µM); in the test with Aspergillus niger, ≥ 512 µg/mL; in the test on Paraphyton cookei, 64 µg/mL (≈ 94.3 µM); in the test with Pseudomonas aeruginosa, 512 µg/mL (≈ 754 µM); with Escherichia coli it was 512 µg/mL (≈ 754 µM). Also, the minimal inhibitory concentration (MIC) against Arthroderma uncinatum is 32 µg/mL (≈ 47.1 µM); in the test with Nannizzia gypsea it was 128 µg/mL (≈ 189 µM); in the test on Nannizzia nana, 64 µg/mL (≈ 94.3 µM); against Aspergillus flavus, ≥ 512 µg/mL; with Staphylococcus aureus, 512 µg/mL (≈ 754 µM); in the test on Enterococcus faecalis, 512 µg/mL (≈ 754 µM).

Values taken from ChEMBL document CHEMBL1147423, “Synthesis and antifungal activities of phenylenedithioureas” (2004).
